Source: a melting point compilation (Tetko et al.; mined from patent text by program, amines drawn as free bases though some values may be those of a salt)

melting point [°C]	Structure (SMILES)
67 to 70	CC(C)(CN)c1ccc(C(=O)NCCc2ccc3[nH]cc(C(=N)N)c3c2)cc1
138 to 140	Cc1nc(N2CCN(Cc3ccccc3C(F)(F)F)C2=O)sc1C(=O)NCc1ccccc1
44 to 45	CCCCCCCCCCCCCCCCOc1ccc(-c2nc(CC(=O)OCC)c(OCC)o2)cc1
175 to 177	O=C1c2ccc(OC3CCCCC3)cc2CCC1CN1CCC(O)(c2ccccc2)CC1 (stereo not drawn)
93.7	CCC[C@H]1CC[C@H]([C@H]2CC[C@H](c3cc(F)c(C[C@H](C)c4ccccc4)c(F)c3)CC2)CC1
151 to 153	CCc1nn(C2CCCC2)c2cc(C(=O)NCCC(=O)O)ccc12
173 to 174	O=[N+]([O-])c1ccc(/C=C/c2ccc(Cl)c(C(F)(F)F)c2)cc1
172 to 173	O=C(O)c1cccc(Oc2ccc([N+](=O)[O-])cc2Cl)c1
102 to 104	O=c1ncc(Cl)cn1CC=CCl
274 to 275	Cc1c(N)cccc1-c1cn(C)c(=O)c(Nc2ccc(C(=O)N3CCOCC3)cc2)n1
186 to 188	CC(=O)NC[C@H]1CN(c2ccc(N3CCC(n4cc(C(F)F)nn4)CC3)c(F)c2)C(=O)O1
148 to 152	CS(=O)(=O)c1ccc(C(CC2CCCC2)C(=O)Nc2nc3ccccc3[nH]2)cc1C#N (stereo not drawn)
158 to 161	COC(=O)c1cccc2cc(-c3ccc(N)cc3)oc12
190	CCS(=O)(=O)N[C@H]1CC[C@H](CCN2CCN(c3nccc4c3OCC4)CC2)CC1
> 220	Cc1cc(=O)n(-c2cc(N)c(Cl)cc2F)c(=O)n1C
128 to 129	COc1ccc(-c2nn(C(C)C)c3c(C(F)(F)F)cccc23)c(OC)c1
66.5 to 67.5	CCCCCCCCCCCCCCCCNc1ccc(C=O)cc1
75.6 to 76.1	CCCCc1ccc(C#Cc2ccc(Br)cc2)cc1
199 to 200	CCOC(=O)CCc1cc([N+](=O)[O-])ccc1O
57 to 58	CCCCCCCCCCOc1cnc(-c2ccc(C#CCCCC(C)OC(C)=O)cc2)nc1 (stereo not drawn)
97 to 98	COc1cc2c(cc1OCc1ccccc1)CCN(Cc1ccccc1)C2
63 to 67	CC(=O)SCCS(=O)(=O)N1CCC[C@H]1C(=O)O
238	COc1cc(C)cc(-c2nn(CC#N)cc2-c2ccnc(S(C)(=O)=O)n2)c1
70	O=S(=O)(c1ccc(Br)s1)N(CCO)CCO

melting point [°C]	Structure (SMILES)
151 to 154	CN(C)CCc1cccc2ccc(-c3ccccc3CNS(C)(=O)=O)cc12
143 to 144	COc1cc(OC)nc(Oc2cccc3c2C(=O)OC3Cl)n1 (stereo not drawn)
89 to 92	CCCCc1nc(Cl)c(C(=O)NC)n1Cc1ccc2oc(-c3ccccc3NS(=O)(=O)C(F)(F)F)c(Br)c2c1
58 to 60	CCCCCOc1ccc(OCC(O)CC#CCCCC(=O)O)cc1 (stereo not drawn)
96 to 99	COc1ccc(OC)c(C2Nc3ccccc3S2)c1 (stereo not drawn)
178 to 181	O=C(O)c1cc(=O)c(Sc2ccccc2)co1
352	O=C1c2ccc(NC(=O)C3CC3)cc2C(=O)c2cc(NC(=O)C3CC3)ccc21
72	COC(=O)c1cccc(C)c1[N+](=O)[O-]
91.5 to 93.5	CN1CCCCC1CCc1ccccc1NS(C)(=O)=O (stereo not drawn)
150	CCOC(=O)C1=C(C)NC(C)=C(C(=O)OC)C1c1cccc(C#N)c1 (stereo not drawn)
153 to 154	CCCCOc1c(CNC(=O)OC(C)(C)C)n(CC(C)C)c(=O)c2ccc(CO)cc12
128 to 130	CCn1ncc2c(Cl)c3c(nc21)C(O)c1ccccc1CC3 (stereo not drawn)
182	Cc1ccc2c(c1C)OC(C(=O)O)C2 (stereo not drawn)
114 to 115	CCCCc1c(/C=C/C(=O)Oc2ccc([N+](=O)[O-])cc2)ccc2ccc(OC)cc12
71 to 73	C(#Cc1ccccn1)CCn1nnc(-c2ccccc2)n1
73.5 to 75	CON=C(C(C)=O)C(=O)N(C)C
130 to 133	CCN(CC)CCOc1ccc(-c2oc3ccccc3c2C(=O)c2cc(C)c(OC)c(C)c2)cc1
108	CCOC(=O)c1cc([N+](=O)[O-])cc(Br)c1O
166 to 167	N#Cc1ccccc1Cn1cc(-c2ccnc(NCCCO)n2)n(-c2ccc(F)cc2)c1=O
322 to 324	Cc1nc2c3c(c(C(=O)N4CCC(O)C4)cc2n1C)CCC(c1ccccc1)O3 (stereo not drawn)
252 to 253	CN1CCN(c2ccc(C(=O)O)cc2S(=O)(=O)Nc2ccccc2)CC1
151 to 153	CC1(C)CN=C2N(C1)c1ccc(Br)cc1C21OCCCO1
107 to 108	CCCCCNCCC1CCCC1CCCCCCC(=O)O (stereo not drawn)
152 to 154	CC(=O)Nc1ccccc1Oc1ccc(C#N)c(C#N)c1

melting point [°C]	Structure (SMILES)
189 to 191	CCC1(Br)Cc2cc(OCC(=O)O)c(Cl)c(Cl)c2C1=O (stereo not drawn)
83 to 84	C=C(C)C(=O)c1nc(S(=O)C(C)C)n(-c2ccc(CC)cc2)c1Cl (stereo not drawn)
131 to 132	N#Cc1ccc2ccn(C3CCN(CCc4ccc(F)cc4)CC3)c2c1
169 to 172	COc1ccc(C(=O)N2CCc3nnc(NN)cc3C2)cc1
93 to 95	NC(=O)c1cc(OCCNCC(O)COc2ccccc2-c2cc3ccccc3[nH]2)ccc1O (stereo not drawn)
114 to 115	CC(C)(Cl)C(CO)=NO
152 to 155	CC1=C(CO)C(C)(C)CCC1=NO
215 to 217	Fc1ccc2c(c1)CC(n1cc[nH]c1=S)CC2 (stereo not drawn)
87	C[Si](C)(C)COc1cc([N+](=O)[O-])ccc1N
65 to 68	CNC(=O)[C@H](Cc1ccc(OCc2ccccc2)cc1)NC(=O)[C@H](CC(C)C)N[C@H](C)C(=O)OC
257 to 260	CCOC(=O)c1cnc2cc(CC)ccc2c1O
112 to 113	CCOP(=O)(/C=C/c1cn(-c2ccccc2)nc1OCc1ccc(OCc2nc(-c3cccc(C(=O)OC)c3)oc2C)c(OC)c1)OCC
213 to 215	O=C1Cn2ncnc2-c2sccc2N1
170 to 174	CC(C)C(NC(=O)C(Cc1ccccc1)NC(=O)OCc1ccccc1)C(=O)Nc1n[nH]c(=S)s1 (stereo not drawn)
249 to 250	S=c1[nH]c2cccc(OCCN3CCc4ccccc4C3)c2[nH]1
172	OC1CSC(Oc2cccc3ocnc23)C(O)C1O (stereo not drawn)
188 to 190	O=C(/C=C/c1ccc2cc[nH]c2c1)CC(=O)/C=C/c1ccc(OCc2ccccn2)cc1O
308 to 312	Cc1nc2cc(C(=O)O)c(C(=O)O)cc2n1C
203	Cn1nc(O)ccc1=S
56 to 57	CCOC(=O)c1ccccc1C(=O)c1ccc2c(c1)C(C)(C)C(C)C2(C)C (stereo not drawn)
155 to 158	C[C@H]1C=CC2=C[C@@H](O)C[C@H](OC(=O)C(C)(C)Oc3ccccc3)[C@@H]2[C@H]1CC[C@@H]1C[C@@H](O)CC(=O)O1
105 to 107	C=CCOc1ccc2c(c1)CCNC2=O
162	CC(C)N(C1CCCCC1)S(=O)(=O)N[C@@H](Cc1ccc(Nc2nccc3cnccc23)cc1)C(=O)O
211 to 212	COC(=O)C1OC(Oc2nc[nH]c2C(N)=O)C(OC(C)=O)C(OC(C)=O)C1OC(C)=O (stereo not drawn)

Structure (SMILES)	melting point [°C]
CN(c1cccc(-c2ccnc3c(C#N)cnn23)c1)S(C)(=O)=O	193 to 195
